One series deals with cellular glutathione. The conditions noted are these: cited from earlier work.
For series [1] the following is noted: cited from earlier work.
Details of series [2]: species or system male Sprague-Dawley rats. The following applies: rat, in vivo, iv. On the procedure: Amphotericin B is a polyene, antifungal antibiotic used to treat fungal infections. Its clinical utility is limited by its nephrotoxicity and cardiotoxicity.
The low and high dose level for each compound are provided in the chart below.
Heart • A sagittal cross-section containing portions of the two atria and of the two ventricles was preserved in 10% NBF. The remaining heart was frozen in liquid nitrogen and stored at ˜−80° C.

The conditions of series [3]: person, small quantity ingested; cited from earlier work.
The conditions of series [4]: cited from earlier work. This is another data set of the same source.
For series [5] the following is noted: rat, in vivo; cited from earlier work.
For series [6] the following is noted: of 19 women treated with cyclophosphamide, thiotepa, and carboplatin; cited from earlier work.
For series [7] the following is noted: cited from earlier work. This is another data set of the same source.
The conditions of series [8]: child, high-dose cyclophosphamide; cited from earlier work.
For series [9] the following is noted: high-dose patients; cited from earlier work.
For series [10] the following is noted: cited from earlier work. This is another data set of the same source.
The conditions of series [11]: cited from earlier work; for myocardial necrosis: young and mature rats.
For series [12] the following is noted: intravenous injection, four hours post-dose; cited from earlier work.
The conditions of series [13]: normotensive rats; cited from earlier work.
For series [14] the following is noted: rats 3 months to 2 years old, dosed over two days; cited from earlier work.
The conditions of series [15]: patients that do not have heart failure or use insulin; cited from earlier work.

On to `C=CC=O` [Acrolein, acrolein], for which the cellular glutathione levels entry in the series on cellular glutathione is on record as “decrease cellular glutathione levels”.
As for `COc1cccc2c1C(=O)c1c(O)c3c(c(O)c1C2=O)C[C@@](O)(C(=O)CO)C[C@@H]3O[C@H]1C[C@H](N)[C@H](O)[C@H](C)O1` [adriamycin, doxorubicin], the “serum enzymes (myocardial toxicity)” value in [1] (rat, in vivo) is “elevation of serum enzymes such as aspartate transaminase, lactate dehydrogenase, and creatine phosphokinase”.
Take `C[C@@H]1[C@H](O)[C@@H](C)/C=C/C=C/C=C/C=C/C=C/C=C/C=C/[C@H](O[C@@H]2O[C@H](C)[C@@H](O)[C@H](N)[C@@H]2O)C[C@@H]2O[C@](O)(C[C@@H](O)C[C@@H](O)[C@H](O)CC[C@@H](O)C[C@@H](O)CC(=O)O[C@H]1C)C[C@H](O)[C@H]2C(=O)O` [amphotericin B]: the cardiomyopathy result in series [2] is reported as “some early signs of cardiomyopathy”.
`C[C@H](CS)C(=O)N1CCC[C@H]1C(=O)O` [captopril]: the “serum enzyme levels and white blood cell counts” value in series [1] (captopril pre-treatment before adriamycin) is reported as “significant reduction in serum enzyme levels as well as restoration of white blood cell counts”.
Consider `CC(C)(C)NCC(O)c1cc(Cl)c(N)c(Cl)c1` (centres unmarked) [clenbuterol], for which the “clinical findings after ingestion” value in [3] is “sustained sinus tachycardia, hypokalemia, hypophosphatemia, and hypomagnesemia”. Besides, in [4] (in vivo), the aortic root dimensions result is reported as “significantly increased aortic root dimensions”. The left ventricular dimensions result in series [4] (vs exercised and control mares) is “significantly higher left ventricular internal dimension and interventricular septal wall thickness at end diastole”. Also, the muscle hypertrophy entry in [5] was “hypertrophy of the heart and latissimus dorsi muscle”.
Consider `O=P1(N(CCCl)CCCl)NCCCO1` (centres unmarked) [cyclophosphamide], for which the “patients who developed moderate congestive heart failure” value in series [6] is “six”. The “patients with clinical cardiotoxicity who were in the high-dose group” value in [7] (out of five patients who developed clinical cardiotoxicity) was “four”. Moreover, in series [7] (twice-daily high-dose treatment (174+/−34 mg/kg), within a week), the “left ventricular mass index” value is reported as “increase in left ventricular mass index”. Further, the cardiac findings entry in [8] is “cardiac arrhythmias and intractable hypotension”. The “patients who died of congestive heart failure” value in series [9] is “Six”.
For `COc1cccc2c1C(=O)c1c(O)c3c(c(O)c1C2=O)C[C@@](O)(C(=O)CO)C[C@@H]3O[C@H]1C[C@H](N)[C@@H](O)[C@H](C)O1` [epirubicin], the “of these patients, deteriorated into congestive heart failure” value in series [10] (human, in vivo) is 20%. Further, in [10] (three years after epirubicin treatment, 120 patients), the “patients with a 25% relative reduction in left ventricular ejection fraction” value was “Approximately 59%”.
With `NNc1nncc2ccccc12` [hydralazine], the “blood pressure and heart rate effects” value in series [11] (rat, in vivo) was “Hypotension and reflex tachycardia”. Further, the myocardial necrosis entry in series [11] is reported as “Myocardial necrosis was observed in both age groups”. Moreover, the “early focal myocardial lesions (histopathology)” value in [12] is recorded as “Lesions were observed”.
On to `CC(C)NCC(O)c1ccc(O)c(O)c1` (centres unmarked) [isoproterenol], for which the myocardial necrosis result in series [11] is given as “Myocardial necrosis was observed in both age groups”.
Turning to `Nc1cc(N2CCCCC2)nc(N)[n+]1[O-]` [minoxidil], the myocardial necrosis entry in series [11] was “Myocardial necrosis was observed in both age groups”. In addition, the cardiac enlargement entry in series [13] was “enlargement of the left ventricle, right ventricle, and interventricular septum”. Besides, in series [14], the heart lesions result is “interstitial hemorrhages at all dose levels”.
Regarding `CN(CCOc1ccc(CC2SC(=O)NC2=O)cc1)c1ccccn1` (centres unmarked) [rosiglitazone], the edema entry in series [15] is listed as “moderate-to-severe edema”.

Values taken from patent publication US7447594B2, “Molecular cardiotoxicology modeling” (Ocimum Biosolutions, Inc., priority 2001, dated 2008).
